# Values of other authors as cited in patent publication US20230134563A1, “SUBLINGUAL CANNABINOID COMPOSITIONS” (ALVIT LCS PHARMA LTD., priority 2017, published 2023).
# Details: single component (oil or surfactant)
smiles,measurement,value
"CCCCCc1cc(O)c2c(c1)OC(C)(C)[C@@H]1CCC(C)=C[C@@H]21 [THC, tetrahydrocannabinol]",HLB,0.754
